Measurements reported in patent publication US11180474B2 (BRISTOL-MYERS SQUIBB COMPANY, priority 2016, dated 2021).

What was measured:
human TLR8 = molecular target: T1, human TLR8 (Homo sapiens, UniProt Q9NR97); test: TLR8 inhibition reporter assay (HEK-Blue cells, SEAP reporter, R848 stimulation); format: cell-based; conditions: HEK-Blue cells overexpressing human TLR8, R848 15.9 μM
T1 construct: host or cells: HEK-Blue cells
T1 sequence (Q9NR97 27-1041): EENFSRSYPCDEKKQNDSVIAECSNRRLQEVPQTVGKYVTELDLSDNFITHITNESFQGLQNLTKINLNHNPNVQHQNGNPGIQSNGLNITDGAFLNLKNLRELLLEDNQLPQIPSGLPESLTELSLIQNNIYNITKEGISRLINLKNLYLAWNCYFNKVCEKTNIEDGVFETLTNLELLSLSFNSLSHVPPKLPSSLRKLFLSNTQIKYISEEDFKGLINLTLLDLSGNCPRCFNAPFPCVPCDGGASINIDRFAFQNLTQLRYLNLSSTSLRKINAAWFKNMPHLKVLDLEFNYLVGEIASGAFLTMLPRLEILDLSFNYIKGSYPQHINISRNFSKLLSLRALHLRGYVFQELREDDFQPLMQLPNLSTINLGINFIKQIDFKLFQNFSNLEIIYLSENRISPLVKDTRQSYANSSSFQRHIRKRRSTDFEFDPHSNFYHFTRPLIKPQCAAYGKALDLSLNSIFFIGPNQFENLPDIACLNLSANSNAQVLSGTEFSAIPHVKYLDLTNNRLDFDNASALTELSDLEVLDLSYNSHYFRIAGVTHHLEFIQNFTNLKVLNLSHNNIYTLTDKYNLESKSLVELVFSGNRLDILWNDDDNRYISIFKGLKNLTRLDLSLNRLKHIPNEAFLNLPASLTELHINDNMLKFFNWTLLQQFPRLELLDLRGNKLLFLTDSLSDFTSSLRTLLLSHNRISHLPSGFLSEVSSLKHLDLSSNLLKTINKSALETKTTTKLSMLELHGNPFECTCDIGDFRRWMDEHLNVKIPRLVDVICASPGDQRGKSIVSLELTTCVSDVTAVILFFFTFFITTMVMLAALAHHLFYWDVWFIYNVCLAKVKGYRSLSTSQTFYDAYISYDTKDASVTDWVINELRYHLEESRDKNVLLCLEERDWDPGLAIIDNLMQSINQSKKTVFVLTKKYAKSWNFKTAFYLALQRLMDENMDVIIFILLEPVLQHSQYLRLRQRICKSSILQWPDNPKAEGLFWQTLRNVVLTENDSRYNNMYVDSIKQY
How it was run: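 HEK-Blue reporter cells (15,000/well TLR7, 20,000 TLR8) exposed to compound over 0.05 nM–50 μM, agonist-stimulated (R848 for TLR8, gardiquimod for TLR7), 22 h at 37 °C, 5% CO2. SEAP read with HEK-Blue Detection; % inhibition relative to agonist-plus-DMSO and known-inhibitor controls.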

human TLR9 = molecular target: T2, human TLR9 (Homo sapiens, UniProt Q9NR96); test: TLR9 inhibition reporter assay (HEK-Blue cells, SEAP reporter, ODN2006 stimulation); format: cell-based; conditions: HEK-Blue cells overexpressing human TLR9, ODN2006 5 nM
T2 construct: host or cells: HEK-Blue cells
T2 sequence (Q9NR96 26-1032): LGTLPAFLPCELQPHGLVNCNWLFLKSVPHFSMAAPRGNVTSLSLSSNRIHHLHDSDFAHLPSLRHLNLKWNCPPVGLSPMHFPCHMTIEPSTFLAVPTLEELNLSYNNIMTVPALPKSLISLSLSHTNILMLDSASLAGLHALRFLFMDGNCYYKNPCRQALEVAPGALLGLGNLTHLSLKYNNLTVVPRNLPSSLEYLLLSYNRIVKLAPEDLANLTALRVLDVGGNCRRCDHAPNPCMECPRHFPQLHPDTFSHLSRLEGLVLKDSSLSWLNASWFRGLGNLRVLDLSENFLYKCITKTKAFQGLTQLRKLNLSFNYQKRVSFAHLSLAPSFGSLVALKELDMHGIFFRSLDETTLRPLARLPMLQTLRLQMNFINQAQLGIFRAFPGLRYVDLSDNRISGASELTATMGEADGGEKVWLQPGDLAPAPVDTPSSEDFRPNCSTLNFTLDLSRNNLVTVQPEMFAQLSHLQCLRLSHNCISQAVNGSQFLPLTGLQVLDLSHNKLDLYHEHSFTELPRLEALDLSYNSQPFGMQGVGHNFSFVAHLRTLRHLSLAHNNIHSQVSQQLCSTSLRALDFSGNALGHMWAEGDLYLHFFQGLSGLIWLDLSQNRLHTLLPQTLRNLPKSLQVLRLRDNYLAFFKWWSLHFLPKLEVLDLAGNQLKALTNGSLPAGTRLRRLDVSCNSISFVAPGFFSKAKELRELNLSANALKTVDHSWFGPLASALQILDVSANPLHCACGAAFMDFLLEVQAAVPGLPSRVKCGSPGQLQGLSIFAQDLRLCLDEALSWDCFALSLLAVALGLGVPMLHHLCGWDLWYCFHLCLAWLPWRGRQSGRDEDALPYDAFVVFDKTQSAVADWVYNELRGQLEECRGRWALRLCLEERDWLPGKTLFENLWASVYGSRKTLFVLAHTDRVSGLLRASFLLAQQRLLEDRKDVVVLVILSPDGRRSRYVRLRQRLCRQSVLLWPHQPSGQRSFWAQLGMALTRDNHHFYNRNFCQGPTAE
How it was run: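 Agonists used: gardiquimod 7.5 μM (TLR7), R848 15.9 μM (TLR8), ODN2006 5 nM (TLR9), added after 30 min room-temperature compound pre-treatment (0.05 nM–50 μM) of receptor-overexpressing HEK-Blue cells. SEAP reporter (NF-κB/AP-1 driven) read after 22 h at 37 °C; inhibition scaled between agonist+DMSO and reference-inhibitor wells.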

| Structure (SMILES) | IC50 (human TLR8) | IC50 (human TLR9) |
| --- | --- | --- |
| CCc1c(-c2ccc(OC)c(OC)c2)[nH]c2ccc(C3CCN(C4CCN(Cc5c[nH]cn5)CC4)CC3)cc12 [Example 125, 5-(1′-((1H-imidazol-4-yl)methyl)-[1,4′-bipiperidin]-4-yl)-2-(3,4-dimethoxyphenyl)-3-ethyl-1H-indole] | 150 nM | 410 nM |
| COc1ccc(-c2[nH]c3ccc(C4CCN(C5CCN(Cc6ccccc6)CC5)CC4)cc3c2C)cc1OC [Example 9, 5-(1′-benzyl-[1,4′-bipiperidin]-4-yl)-2-(3,4-dimethoxyphenyl)-3-methyl-1H-indole] | 457 nM | 360 nM |
